This note sets out measurements from US10336732B2, “1-heterocyclyl isochromanyl compounds and analogs for treating CNS disorders” (Sunovion Pharmaceuticals Inc., priority 2015, dated 2019).

This assay relates to mice. The assay is described as follows: Neuropharmacological assay (SmartCube), behavioral signature of compound-treated mice. Format: in vivo. The following applies: i.p. 15 min before behavioral test, most efficacious dose(s) of 3 doses. In a few lines: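 Read-out is an automated video-based behavioral signature, scored as per-class probabilities (e.g., anxiolytic, antidepressant) against reference compounds. Dosing was i.p. at three doses, 15 min pre-test, in NMP, polyethylene glycol and propylene glycol. Values shown are from the most efficacious dose(s).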
Regarding `Fc1cccc2c1[C@@H]([C@@H]1CCN1)OCC2` [Compound I-84, (S)-2-((S)-8-fluoroisochroman-1-yl)azetidine], the “AD: ADHD (probability that behavioral signature matches class)” value (from here on “AD: ADHD”) is on record as “+ (LOQ ≤ + <5%)”, the “AG: analgesic (probability that behavioral signature matches class)” value (shortened to “AG: analgesic”) is given as “+ (LOQ ≤ + <5%)”, the “AX: anxiolytic (probability that behavioral signature matches class)” value (“AX: anxiolytic” for short) was “++ (5% ≤ ++ <25%)” and the “CE: cognitive enhancer (probability that behavioral signature matches class)” value (“CE: cognitive enhancer” for short) is on record as “+ (LOQ ≤ + <5%)”. Further, the “DP: anti-depressant (probability that behavioral signature matches class)” value (“DP: anti-depressant” for short) is recorded as “++ (5% ≤ ++ <25%)”, the “HA: hallucinogen (probability that behavioral signature matches class)” value (from here on “HA: hallucinogen”) was “+ (LOQ ≤ + <5%)”, the “MS: mood stabilizer (probability that behavioral signature matches class)” value (shortened to “MS: mood stabilizer”) is reported as “++ (5% ≤ ++ <25%)” and the “PS: anti-psychotic (probability that behavioral signature matches class)” value (shortened to “PS: anti-psychotic”) is “++++ (50% ≤ ++++)”. Besides, the “SD: sedative hypnotic (probability that behavioral signature matches class)” value (from here on “SD: sedative hypnotic”) is on record as “++ (5% ≤ ++ <25%)”, the “UN: uncharacterized CNS activity (probability that behavioral signature matches class)” value (“UN: uncharacterized CNS activity” below) is “+ (LOQ ≤ + <5%)” and the “XG: anxiogenic (probability that behavioral signature matches class)” value (from here on “XG: anxiogenic”) was “+ (LOQ ≤ + <5%)”.
With `CC1(C)CN[C@H]([C@H]2OCCc3ccccc32)C1` [Compound I-60, (S)-2-((S)-isochroman-1-yl)-4,4-dimethylpyrrolidine], the “AD: ADHD” value is “+ (LOQ ≤ + <5%)”, the “AG: analgesic” value is on record as “++ (5% ≤ ++ <25%)”, the “AX: anxiolytic” value is reported as “++ (5% ≤ ++ <25%)” and the “CE: cognitive enhancer” value was “++ (5% ≤ ++ <25%)”. For the same molecule, the “DP: anti-depressant” value is on record as “++ (5% ≤ ++ <25%)”, the “HA: hallucinogen” value is recorded as “+ (LOQ ≤ + <5%)”, the “MS: mood stabilizer” value is on record as “+ (LOQ ≤ + <5%)” and the “PS: anti-psychotic” value is “+++ (25% ≤ +++ <50%)”. Further, the “SD: sedative hypnotic” value was “++ (5% ≤ ++ <25%)”, the “UN: uncharacterized CNS activity” value is listed as “++ (5% ≤ ++ <25%)” and the “XG: anxiogenic” value is on record as “+ (LOQ ≤ + <5%)”.
On to `Cc1ccc2c(c1)[C@@H]([C@H]1CCCN1)OCC2` [Compound I-27, (R)-2-((S)-7-methylisochroman-1-yl)pyrrolidine], for which the “AD: ADHD” value is recorded as “+ (LOQ ≤ + <5%)”, the “AG: analgesic” value is given as “++ (5% ≤ ++ <25%)”, the “AX: anxiolytic” value is given as “+++ (25% ≤ +++ <50%)” and the “CE: cognitive enhancer” value is “++ (5% ≤ ++ <25%)”. In addition, the “DP: anti-depressant” value is given as “++ (5% ≤ ++ <25%)”, the “HA: hallucinogen” value is recorded as “+ (LOQ ≤ + <5%)”, the “MS: mood stabilizer” value is given as “++ (5% ≤ ++ <25%)” and the “PS: anti-psychotic” value is on record as “++ (5% ≤ ++ <25%)”. Moreover, the “SD: sedative hypnotic” value is given as “+ (LOQ ≤ + <5%)”, the “UN: uncharacterized CNS activity” value is recorded as “+ (LOQ ≤ + <5%)” and the “XG: anxiogenic” value was “+ (LOQ ≤ + <5%)”.
Regarding `c1ccc2c(c1)CCO[C@@H]2C1CNC1` [Compound I-114, (R)-3-(isochroman-1-yl)azetidine], the “AD: ADHD” value is recorded as “+ (LOQ ≤ + <5%)”, the “AG: analgesic” value is reported as “++ (5% ≤ ++ <25%)”, the “AX: anxiolytic” value was “++ (5% ≤ ++ <25%)” and the “CE: cognitive enhancer” value is recorded as “++ (5% ≤ ++ <25%)”. The “DP: anti-depressant” value is listed as “+++ (25% ≤ +++ <50%)”, the “HA: hallucinogen” value is “+ (LOQ ≤ + <5%)”, the “MS: mood stabilizer” value is listed as “+ (LOQ ≤ + <5%)” and the “PS: anti-psychotic” value is recorded as “++ (5% ≤ ++ <25%)”. Besides, the “SD: sedative hypnotic” value is on record as “++ (5% ≤ ++ <25%)”, the “UN: uncharacterized CNS activity” value was “+ (LOQ ≤ + <5%)” and the “XG: anxiogenic” value was “+ (LOQ ≤ + <5%)”.
`Fc1ccc2c(c1)[C@H]([C@@H]1CCCN1)OCCC2` [Compound I-107, (S)-2-((R)-8-fluoro-1,3,4,5-tetrahydrobenzo[c]oxepin-1-yl)pyrrolidine]: the “AD: ADHD” value is “+ (LOQ ≤ + <5%)”, the “AG: analgesic” value is recorded as “++ (5% ≤ ++ <25%)”, the “AX: anxiolytic” value was “+++ (25% ≤ +++ <50%)” and the “CE: cognitive enhancer” value is recorded as “++ (5% ≤ ++ <25%)”. In addition, the “DP: anti-depressant” value was “++ (5% ≤ ++ <25%)”, the “HA: hallucinogen” value is given as “+ (LOQ ≤ + <5%)”, the “MS: mood stabilizer” value is given as “++ (5% ≤ ++ <25%)” and the “PS: anti-psychotic” value was “+++ (25% ≤ +++ <50%)”. For the same molecule, the “SD: sedative hypnotic” value is listed as “++ (5% ≤ ++ <25%)”, the “UN: uncharacterized CNS activity” value was “++ (5% ≤ ++ <25%)” and the “XG: anxiogenic” value is “+ (LOQ ≤ + <5%)”.
Consider `CC1(C)CN[C@H]([C@@H]2OCCc3ccccc32)C1` [Compound I-59, (S)-2-((R)-isochroman-1-yl)-4,4-dimethylpyrrolidine], for which the “AD: ADHD” value is “+ (LOQ ≤ + <5%)”, the “AG: analgesic” value is “+ (LOQ ≤ + <5%)”, the “AX: anxiolytic” value is recorded as “++ (5% ≤ ++ <25%)” and the “CE: cognitive enhancer” value is on record as “++ (5% ≤ ++ <25%)”. Besides, the “DP: anti-depressant” value was “++ (5% ≤ ++ <25%)”, the “HA: hallucinogen” value was “+ (LOQ ≤ + <5%)”, the “MS: mood stabilizer” value is given as “++ (5% ≤ ++ <25%)” and the “PS: anti-psychotic” value was “++ (5% ≤ ++ <25%)”. The “SD: sedative hypnotic” value is “+ (LOQ ≤ + <5%)”, the “UN: uncharacterized CNS activity” value is “+ (LOQ ≤ + <5%)” and the “XG: anxiogenic” value is “+ (LOQ ≤ + <5%)”.
Turning to `Fc1cccc2c1[C@@H]([C@@H]1CCCN1)OCC2` [Compound I-2, (S)-2-((S)-8-fluoroisochroman-1-yl)pyrrolidine], the “AD: ADHD” value is reported as “+ (LOQ ≤ + <5%)”, the “AG: analgesic” value was “+ (LOQ ≤ + <5%)”, the “AX: anxiolytic” value was “++ (5% ≤ ++ <25%)” and the “CE: cognitive enhancer” value was “+ (LOQ ≤ + <5%)”. Also, the “DP: anti-depressant” value was “+ (LOQ ≤ + <5%)”, the “HA: hallucinogen” value is recorded as “+ (LOQ ≤ + <5%)”, the “MS: mood stabilizer” value was “++ (5% ≤ ++ <25%)” and the “PS: anti-psychotic” value was “++ (5% ≤ ++ <25%)”. Besides, the “SD: sedative hypnotic” value is “++ (5% ≤ ++ <25%)”, the “UN: uncharacterized CNS activity” value was “+ (LOQ ≤ + <5%)” and the “XG: anxiogenic” value is given as “+ (LOQ ≤ + <5%)”.
In the case of `COc1cccc2c1[C@H]([C@H]1CCCN1)OCC2` [Compound I-49, (R)-2-((R)-8-methoxyisochroman-1-yl)pyrrolidine], the “AD: ADHD” value was “+ (LOQ ≤ + <5%)”, the “AG: analgesic” value is listed as “++ (5% ≤ ++ <25%)”, the “AX: anxiolytic” value is reported as “++ (5% ≤ ++ <25%)” and the “CE: cognitive enhancer” value is “++ (5% ≤ ++ <25%)”. Moreover, the “DP: anti-depressant” value was “++ (5% ≤ ++ <25%)”, the “HA: hallucinogen” value is on record as “+ (LOQ ≤ + <5%)”, the “MS: mood stabilizer” value was “++ (5% ≤ ++ <25%)” and the “PS: anti-psychotic” value is “++ (5% ≤ ++ <25%)”. The “SD: sedative hypnotic” value is “++ (5% ≤ ++ <25%)”, the “UN: uncharacterized CNS activity” value is “++ (5% ≤ ++ <25%)” and the “XG: anxiogenic” value is recorded as “+ (LOQ ≤ + <5%)”.
With `N#Cc1ccc2c(c1)[C@@H]([C@H]1CCCN1)OCC2` [Compound I-42, (S)-1-((R)-pyrrolidin-2-yl)isochroman-7-carbonitrile], the “AD: ADHD” value is “+ (LOQ ≤ + <5%)”, the “AG: analgesic” value is listed as “++ (5% ≤ ++ <25%)”, the “AX: anxiolytic” value is on record as “++ (5% ≤ ++ <25%)” and the “CE: cognitive enhancer” value is “++ (5% ≤ ++ <25%)”. Also, the “DP: anti-depressant” value is “+++ (25% ≤ +++ <50%)”, the “HA: hallucinogen” value is on record as “+ (LOQ ≤ + <5%)”, the “MS: mood stabilizer” value was “+ (LOQ ≤ + <5%)” and the “PS: anti-psychotic” value is listed as “++ (5% ≤ ++ <25%)”. Moreover, the “SD: sedative hypnotic” value was “++ (5% ≤ ++ <25%)”, the “UN: uncharacterized CNS activity” value is “+ (LOQ ≤ + <5%)” and the “XG: anxiogenic” value was “+ (LOQ ≤ + <5%)”.
